One test concerns the target LRRK2 (Homo sapiens, UniProt Q5S007). Kind of test: experiment of inhibiting kinase activity, LRRK2. In kind it is biochemical. Conditions: for inhibition at 0.1 µM: at 100 nM; for inhibition at 0.1 µM / inhibition at 0.01 µM: read-out: inhibition rate LRRK2; for IC50: kinase activity assay, Table 3; for inhibition at 0.01 µM: at 10 nM. Here is the method:
(§1) The inhibition rates of tested compounds on JAK1, JAK2, JAK3, TYK2, CDK7, CDK9, EGFR (T790M) and LRRK2 kinases were measured. The test concentrations of the compounds were 10 nM and 100 nM, and the detection was performed by replicate wells. Alternatively, compounds were 3-fold serial diluted from 10 µM for 10 concentrations in replicate wells.

Test [1] concerns the target T1, JAK3 (Mus musculus, UniProt Q62137).
T1 construct: endogenous in cells; host or cells: CTLL-2
T1 sequence (Q62137 1-1100): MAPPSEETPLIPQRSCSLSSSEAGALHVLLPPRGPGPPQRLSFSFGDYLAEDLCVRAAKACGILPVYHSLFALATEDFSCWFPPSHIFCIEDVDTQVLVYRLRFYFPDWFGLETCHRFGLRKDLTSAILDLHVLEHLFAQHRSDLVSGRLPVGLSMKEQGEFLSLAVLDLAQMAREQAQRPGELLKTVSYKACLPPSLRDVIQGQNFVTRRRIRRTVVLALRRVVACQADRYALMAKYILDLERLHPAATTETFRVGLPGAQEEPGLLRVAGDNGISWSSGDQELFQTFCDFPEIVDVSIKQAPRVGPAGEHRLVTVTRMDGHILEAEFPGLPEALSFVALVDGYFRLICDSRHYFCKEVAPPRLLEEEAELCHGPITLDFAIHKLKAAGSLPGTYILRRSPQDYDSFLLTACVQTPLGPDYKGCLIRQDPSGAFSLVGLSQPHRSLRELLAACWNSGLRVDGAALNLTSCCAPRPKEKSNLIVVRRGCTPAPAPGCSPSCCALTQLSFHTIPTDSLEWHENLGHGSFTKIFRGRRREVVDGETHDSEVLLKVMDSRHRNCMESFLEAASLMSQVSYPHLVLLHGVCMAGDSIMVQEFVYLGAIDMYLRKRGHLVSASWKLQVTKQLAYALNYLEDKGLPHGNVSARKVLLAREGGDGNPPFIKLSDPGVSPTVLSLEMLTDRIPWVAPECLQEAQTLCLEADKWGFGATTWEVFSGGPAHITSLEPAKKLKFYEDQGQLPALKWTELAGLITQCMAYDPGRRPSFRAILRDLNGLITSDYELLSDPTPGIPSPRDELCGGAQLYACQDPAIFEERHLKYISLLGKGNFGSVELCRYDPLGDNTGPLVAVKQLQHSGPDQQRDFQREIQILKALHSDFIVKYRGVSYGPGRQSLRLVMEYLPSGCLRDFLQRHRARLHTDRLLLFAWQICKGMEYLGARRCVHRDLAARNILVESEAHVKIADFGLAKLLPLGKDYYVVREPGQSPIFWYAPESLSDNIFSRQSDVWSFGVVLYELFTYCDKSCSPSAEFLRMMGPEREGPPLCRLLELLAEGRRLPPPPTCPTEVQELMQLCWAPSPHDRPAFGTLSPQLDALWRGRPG
Kind of test: JAKs cell activity test: JAK3_pSTAT5 in IL-2-induced CTLL-2 cells. The following applies: pSTAT5, IL-2-induced CTLL-2 cells. In kind it is cell-based. The procedure:
(§2) THP1 cells were collected by centrifugation, resuspended with 1×HBSS, counted and diluted to a certain cell density. They were inoculated in a 384-well plate and cultured in a saturated humidity incubator with 37 °C and 5% CO2. The compound (DMSO final volume of 0.3%) was added to THP1 cells (10 doses in duplicates) and cultured in a saturated humidity incubator with 37 °C and 5% CO2. hIL-4 was added to stimulate cells and cultured in a saturated humidity incubator with 37 °C and 5% CO2. The lysis solution was added and incubated at room temperature. According to the instructions of AlphaLISA SureFire Ultra p-STAT6 detection kit, the lysis solution was transferred to pSTAT6 detection system, and the ALPHA signal was read by PE Envision microplate reader. The inhibition rate Inh%=((DMSO-sample)/(DMSO-background))×100 was calculated. IC50 was obtained by fitting with GraphPad Prism non-linear regression equation, and y=Bottom+(Top-Bottom)/(1+10^((LogIC50-x)×hillslope)), where x was the concentration of the compound and y was the inhibition rate.
JAK2_pSTAT5 was tesed in IL-3-induced BAF3 cells according to the above steps, and JAK3_pSTAT5 was tested in IL-2-induced CTLL-2 cells (without serum stimulation) according to the above steps.

Another test deals with JAK2 (Homo sapiens, UniProt O60674). Kind of test: experiment of inhibiting kinase activity (Caliper mobility shift assay), JAK2. In kind it is biochemical. The following applies: for inhibition at 0.01 µM: at 10 nM; for inhibition at 0.01 µM / inhibition at 0.1 µM: read-out: inhibition rate JAK2; for inhibition at 0.1 µM: at 100 nM; for IC50: kinase activity assay, Table 3. Summed up:
(§3)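 Inhibition is measured as reduced conversion of substrate by the kinase, separated by microfluidic mobility shift after a room-temperature reaction started with ATP/substrate following a 10-min compound preincubation. Test doses are 10 nM, 100 nM, or a 10-point 3-fold series from 10 µM.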

Test [2] concerns the target T2, JAK1 (Homo sapiens, UniProt P23458). Briefly: JAKs cell activity test: detection of pSTAT6 in THP1 cells induced by JAK1_IL-4. In kind it is cell-based. Conditions: pSTAT6, IL-4-induced THP1 cells. The procedure:
Detection of pSTAT6 in THP1 cells induced by JAK1_IL-4
as §2

Test [3] has as its target T2, JAK1. Briefly: experiment of inhibiting kinase activity (Caliper mobility shift assay), JAK1. In kind it is biochemical. The following applies: for inhibition at 0.1 µM: at 100 nM; for IC50: kinase activity assay, Table 3. Summed up:
as §3

Test [4] addresses T3, JAK3 (Homo sapiens, UniProt P52333).
T3 sequence (P52333 1-1124): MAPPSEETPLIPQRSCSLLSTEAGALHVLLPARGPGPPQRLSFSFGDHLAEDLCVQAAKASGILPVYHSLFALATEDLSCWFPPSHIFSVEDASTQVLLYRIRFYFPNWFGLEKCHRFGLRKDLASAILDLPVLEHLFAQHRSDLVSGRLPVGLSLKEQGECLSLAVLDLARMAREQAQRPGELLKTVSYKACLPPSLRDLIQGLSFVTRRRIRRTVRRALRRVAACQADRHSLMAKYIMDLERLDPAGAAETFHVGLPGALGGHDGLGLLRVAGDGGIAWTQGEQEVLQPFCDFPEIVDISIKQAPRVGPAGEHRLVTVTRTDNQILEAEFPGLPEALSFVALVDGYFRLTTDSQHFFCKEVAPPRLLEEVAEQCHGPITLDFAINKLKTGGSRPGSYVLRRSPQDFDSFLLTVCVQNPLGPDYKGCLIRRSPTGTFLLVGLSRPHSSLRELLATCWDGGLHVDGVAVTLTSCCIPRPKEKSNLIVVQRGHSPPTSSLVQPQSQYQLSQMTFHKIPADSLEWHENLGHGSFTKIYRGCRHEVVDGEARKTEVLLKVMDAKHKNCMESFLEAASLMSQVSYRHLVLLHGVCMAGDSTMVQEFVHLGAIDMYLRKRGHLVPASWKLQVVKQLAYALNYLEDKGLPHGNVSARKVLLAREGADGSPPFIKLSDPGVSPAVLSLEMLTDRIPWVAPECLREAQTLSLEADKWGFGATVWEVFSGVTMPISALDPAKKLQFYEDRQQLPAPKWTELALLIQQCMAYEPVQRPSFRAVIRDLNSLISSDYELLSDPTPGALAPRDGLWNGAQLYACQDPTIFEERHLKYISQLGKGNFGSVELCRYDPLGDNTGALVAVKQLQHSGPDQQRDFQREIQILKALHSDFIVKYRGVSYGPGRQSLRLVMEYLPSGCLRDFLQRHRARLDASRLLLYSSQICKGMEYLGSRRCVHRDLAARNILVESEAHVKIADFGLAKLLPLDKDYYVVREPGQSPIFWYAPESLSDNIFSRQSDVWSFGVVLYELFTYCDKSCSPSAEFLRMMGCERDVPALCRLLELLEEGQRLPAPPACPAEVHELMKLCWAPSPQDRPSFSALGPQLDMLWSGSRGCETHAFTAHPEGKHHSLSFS
Kind of test: experiment of inhibiting kinase activity (Caliper mobility shift assay), JAK3. In kind it is biochemical. Conditions: at 10 nM; read-out: inhibition rate JAK3. An outline of the steps:
as §3

In a further test the target is TYK2 (Homo sapiens, UniProt P29597). Kind of test: experiment of inhibiting kinase activity, TYK2. The following applies: at 10 nM; read-out: inhibition rate TYK2. In kind it is biochemical. The procedure:
as §1

The target in a further test is T4, wild-type LRRK2 (Homo sapiens, UniProt Q5S007).
T4 construct: pCMV-flag-WT LRRK2 (full-length); expressed in transfected cells; host or cells: HEK293T
Kind of test: detection of phosphorylated S935 in HEK293T overexpressing wild-type LRRK2. Conditions: pS935, HEK293T overexpressing wild-type LRRK2, 1.5 hours. In kind it is cell-based. The procedure: (§4) Detection of phosphorylated S935 in HEK293T Overexpressing full-length LRRK2 (G2019S) or wild-type LRRK2
(§5) HEK293T cells was inoculated into a 6-well plate and cultured overnight. The next day, they were transiently transfected with plasmid pcDNA5-FRT/TO-FLAG LRRK2 (G2019S, full-length) or pCMV-flag-WT LRRK2 (full-length) by using Superfect transfection reagent and cultured at 37°C and 5% CO2 for 20-24 hours. The next day, cells were collected, resuspended at a density of 0.48×10^6 cells/ml, and inoculated into a 384-well plate at 50 microliters/well. Compound or DMSO solutions (volume ratio of 0.5%) were added by Tecan, and cultured at 37°C and 5% CO2 for 1.5 hours. After 1.5 hours, the supernatant was discarded, 50 microliters of 8% PFA were added in each well to fix the cells, and the cells were incubated at room temperature for 1 hour. The plate was washed with EL406 plate washer for three times, with 115 microliters of PBST per well, and the culture plate was patted to dryness. The cells were blocked with 50 microliters/well of Licor Odyssey blocking solution (0.1% Tween 20) at room temperature for 1.5 hours. The blocking solution was discarded and the culture plate was patted to dryness. 20 microliters of primary antibody (1:1000(pS935), diluted with Licor Odyssey buffer (0.1% Tween20)) was added into each well, and incubated at 4 °C overnight. The next day, the first antibody was discarded and washing was performed with PBST for five times. 20 microliters of secondary antibody (diluted with Licor Odyssey buffer (0.1% Tween20) at 1:500 and stained with DNA at 1:2000) were added into each well, and incubated at room temperature for 1 hour. The second antibody was discarded, and washing was performed for three times with PBST. The fluorescence intensity was measured by LICOR Odyssey imager Scanner, and the data was analyzed.

For the next test, the target named is T5, LRRK2 (G2019S) (Homo sapiens, UniProt Q5S007, G2019S).
T5 construct: pcDNA5-FRT/TO-FLAG LRRK2 (G2019S, full-length); expressed in transfected cells; host or cells: HEK293T
Briefly: detection of phosphorylated S935 in HEK293T overexpressing full-length LRRK2 (G2019S). In kind it is cell-based. Conditions: pS935, HEK293T overexpressing LRRK2 (G2019S), 1.5 hours. Here is the method:
as §4, §5

T2 sequence (P23458 whole entry): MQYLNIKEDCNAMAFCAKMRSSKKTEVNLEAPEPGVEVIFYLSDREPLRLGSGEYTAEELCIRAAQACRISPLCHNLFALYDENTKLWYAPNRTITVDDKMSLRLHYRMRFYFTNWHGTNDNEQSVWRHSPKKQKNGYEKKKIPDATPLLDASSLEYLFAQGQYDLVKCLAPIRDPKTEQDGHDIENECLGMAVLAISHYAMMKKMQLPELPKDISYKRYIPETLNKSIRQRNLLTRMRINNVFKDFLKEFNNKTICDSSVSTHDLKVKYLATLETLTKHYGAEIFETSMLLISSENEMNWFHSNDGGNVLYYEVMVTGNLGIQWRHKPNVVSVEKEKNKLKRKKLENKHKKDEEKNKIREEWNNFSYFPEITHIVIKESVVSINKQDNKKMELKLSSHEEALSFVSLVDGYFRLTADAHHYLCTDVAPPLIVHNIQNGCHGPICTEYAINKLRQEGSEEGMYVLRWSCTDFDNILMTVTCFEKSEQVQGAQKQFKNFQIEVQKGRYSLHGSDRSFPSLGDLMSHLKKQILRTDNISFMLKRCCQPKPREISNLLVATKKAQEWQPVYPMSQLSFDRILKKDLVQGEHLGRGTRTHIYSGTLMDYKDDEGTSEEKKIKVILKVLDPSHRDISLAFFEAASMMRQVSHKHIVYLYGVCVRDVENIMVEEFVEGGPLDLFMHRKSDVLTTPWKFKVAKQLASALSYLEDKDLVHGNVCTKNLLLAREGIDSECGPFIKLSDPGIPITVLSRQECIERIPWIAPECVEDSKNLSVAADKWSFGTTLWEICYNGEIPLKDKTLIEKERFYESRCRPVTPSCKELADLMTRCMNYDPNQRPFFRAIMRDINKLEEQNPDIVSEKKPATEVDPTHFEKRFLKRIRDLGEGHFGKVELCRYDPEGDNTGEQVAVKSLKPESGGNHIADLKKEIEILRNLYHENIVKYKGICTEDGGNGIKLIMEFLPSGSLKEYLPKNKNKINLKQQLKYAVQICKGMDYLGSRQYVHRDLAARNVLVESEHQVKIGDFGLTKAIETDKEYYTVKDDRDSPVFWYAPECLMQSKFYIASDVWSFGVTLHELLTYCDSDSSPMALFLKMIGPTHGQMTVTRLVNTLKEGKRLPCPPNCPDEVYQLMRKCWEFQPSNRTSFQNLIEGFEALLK
JAK2, sequence (O60674 whole entry): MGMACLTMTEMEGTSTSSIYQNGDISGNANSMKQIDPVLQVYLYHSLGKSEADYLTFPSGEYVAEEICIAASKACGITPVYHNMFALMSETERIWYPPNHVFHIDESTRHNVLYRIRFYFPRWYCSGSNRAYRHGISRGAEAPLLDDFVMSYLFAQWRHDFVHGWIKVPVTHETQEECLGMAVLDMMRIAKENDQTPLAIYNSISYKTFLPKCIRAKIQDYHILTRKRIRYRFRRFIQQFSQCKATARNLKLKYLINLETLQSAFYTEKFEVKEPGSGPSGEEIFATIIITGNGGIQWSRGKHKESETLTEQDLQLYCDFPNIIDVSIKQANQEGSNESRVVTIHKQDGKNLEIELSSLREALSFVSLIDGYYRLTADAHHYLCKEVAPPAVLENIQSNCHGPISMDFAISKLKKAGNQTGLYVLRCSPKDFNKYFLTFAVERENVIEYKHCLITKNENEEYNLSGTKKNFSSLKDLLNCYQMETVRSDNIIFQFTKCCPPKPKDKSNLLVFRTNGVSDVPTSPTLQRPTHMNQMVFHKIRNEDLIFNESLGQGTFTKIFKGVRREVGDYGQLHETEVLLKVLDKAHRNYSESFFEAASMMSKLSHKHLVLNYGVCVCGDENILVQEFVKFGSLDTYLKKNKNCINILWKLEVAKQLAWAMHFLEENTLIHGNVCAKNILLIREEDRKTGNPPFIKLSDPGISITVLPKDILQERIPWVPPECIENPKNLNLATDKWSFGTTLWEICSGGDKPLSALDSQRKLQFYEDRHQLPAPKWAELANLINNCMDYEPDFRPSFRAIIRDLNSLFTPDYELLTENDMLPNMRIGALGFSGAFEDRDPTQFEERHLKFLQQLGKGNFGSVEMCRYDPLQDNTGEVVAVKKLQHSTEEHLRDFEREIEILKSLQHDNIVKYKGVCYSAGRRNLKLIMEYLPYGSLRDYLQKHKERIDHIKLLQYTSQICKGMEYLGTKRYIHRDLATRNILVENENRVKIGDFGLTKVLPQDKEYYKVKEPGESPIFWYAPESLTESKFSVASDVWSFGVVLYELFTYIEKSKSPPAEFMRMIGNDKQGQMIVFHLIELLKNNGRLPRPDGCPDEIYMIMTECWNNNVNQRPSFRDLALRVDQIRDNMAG
LRRK2, sequence (Q5S007 whole entry): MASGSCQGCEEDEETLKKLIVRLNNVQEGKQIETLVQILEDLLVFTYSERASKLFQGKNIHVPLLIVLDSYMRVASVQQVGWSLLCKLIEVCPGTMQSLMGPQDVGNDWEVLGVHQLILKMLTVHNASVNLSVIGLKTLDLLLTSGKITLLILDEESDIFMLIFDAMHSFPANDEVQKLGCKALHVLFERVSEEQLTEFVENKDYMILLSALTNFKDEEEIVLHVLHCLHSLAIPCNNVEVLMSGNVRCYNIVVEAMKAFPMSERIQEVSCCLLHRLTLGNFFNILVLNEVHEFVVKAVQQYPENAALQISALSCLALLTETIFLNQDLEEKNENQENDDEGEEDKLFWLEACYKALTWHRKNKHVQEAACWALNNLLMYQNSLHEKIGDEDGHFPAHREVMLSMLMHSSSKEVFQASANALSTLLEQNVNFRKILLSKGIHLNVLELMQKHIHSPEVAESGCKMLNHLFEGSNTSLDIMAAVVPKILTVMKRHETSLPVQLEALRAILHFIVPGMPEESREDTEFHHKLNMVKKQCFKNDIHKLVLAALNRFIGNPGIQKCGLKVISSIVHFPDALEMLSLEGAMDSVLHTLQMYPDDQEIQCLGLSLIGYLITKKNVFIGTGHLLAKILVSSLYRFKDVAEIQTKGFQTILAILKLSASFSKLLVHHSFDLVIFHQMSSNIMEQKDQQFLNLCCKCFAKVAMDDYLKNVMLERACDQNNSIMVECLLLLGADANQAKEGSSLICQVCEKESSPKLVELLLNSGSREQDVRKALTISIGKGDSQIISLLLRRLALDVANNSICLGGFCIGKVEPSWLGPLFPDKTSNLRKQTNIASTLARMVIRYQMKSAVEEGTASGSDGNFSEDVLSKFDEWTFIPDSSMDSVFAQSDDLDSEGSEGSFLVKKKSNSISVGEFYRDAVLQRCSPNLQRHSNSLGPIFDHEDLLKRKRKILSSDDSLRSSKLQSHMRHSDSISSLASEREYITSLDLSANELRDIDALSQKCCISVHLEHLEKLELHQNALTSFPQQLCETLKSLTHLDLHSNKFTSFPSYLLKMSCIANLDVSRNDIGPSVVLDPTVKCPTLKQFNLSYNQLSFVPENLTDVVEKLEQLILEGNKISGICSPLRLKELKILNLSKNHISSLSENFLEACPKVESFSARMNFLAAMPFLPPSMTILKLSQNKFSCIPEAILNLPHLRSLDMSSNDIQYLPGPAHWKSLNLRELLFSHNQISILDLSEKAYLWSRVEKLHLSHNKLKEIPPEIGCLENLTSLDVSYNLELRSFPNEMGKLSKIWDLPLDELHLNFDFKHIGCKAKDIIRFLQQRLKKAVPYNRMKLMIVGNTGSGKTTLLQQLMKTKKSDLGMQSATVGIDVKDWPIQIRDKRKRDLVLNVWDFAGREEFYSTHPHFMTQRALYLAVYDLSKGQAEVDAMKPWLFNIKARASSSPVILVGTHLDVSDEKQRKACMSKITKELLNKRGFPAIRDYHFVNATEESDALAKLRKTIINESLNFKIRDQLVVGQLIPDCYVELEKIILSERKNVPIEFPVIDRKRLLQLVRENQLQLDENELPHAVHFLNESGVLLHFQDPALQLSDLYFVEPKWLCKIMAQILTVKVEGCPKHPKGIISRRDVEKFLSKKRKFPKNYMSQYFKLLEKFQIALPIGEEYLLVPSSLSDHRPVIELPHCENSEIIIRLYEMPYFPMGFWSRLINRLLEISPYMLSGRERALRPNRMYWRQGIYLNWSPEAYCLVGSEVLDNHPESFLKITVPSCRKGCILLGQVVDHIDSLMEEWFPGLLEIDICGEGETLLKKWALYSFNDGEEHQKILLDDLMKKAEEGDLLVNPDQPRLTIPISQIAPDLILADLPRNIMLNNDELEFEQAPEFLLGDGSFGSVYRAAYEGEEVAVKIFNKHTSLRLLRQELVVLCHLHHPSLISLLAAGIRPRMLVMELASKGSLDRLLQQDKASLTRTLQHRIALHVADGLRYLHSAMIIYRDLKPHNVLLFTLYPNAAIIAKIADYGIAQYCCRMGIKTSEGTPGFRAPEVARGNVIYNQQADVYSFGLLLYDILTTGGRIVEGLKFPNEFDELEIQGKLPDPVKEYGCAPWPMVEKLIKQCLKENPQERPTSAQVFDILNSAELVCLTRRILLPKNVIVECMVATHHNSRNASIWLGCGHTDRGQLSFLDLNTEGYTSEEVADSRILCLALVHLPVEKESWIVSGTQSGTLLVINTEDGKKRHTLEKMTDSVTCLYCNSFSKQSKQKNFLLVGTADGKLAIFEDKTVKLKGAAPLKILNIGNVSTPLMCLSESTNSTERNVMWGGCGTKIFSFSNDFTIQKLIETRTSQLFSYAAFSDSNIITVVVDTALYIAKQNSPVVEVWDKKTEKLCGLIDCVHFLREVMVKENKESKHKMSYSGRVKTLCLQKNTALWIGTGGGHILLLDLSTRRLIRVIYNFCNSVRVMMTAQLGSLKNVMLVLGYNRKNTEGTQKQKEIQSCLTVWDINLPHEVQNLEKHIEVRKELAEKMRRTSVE
T4 sequence (Q5S007 whole entry): as above
T5 sequence (Q5S007 whole entry G2019S): as the sequence (Q5S007 whole entry) above, with G2019S counted along it

As to `CN1CCOc2ccc(Nc3nc(-c4cnn(C(CC#N)C5CCCC5)c4)c4cc[nH]c4n3)cc2OCC1` (stereo not shown) [Example 27, 3-cyclopentyl-3-(4-(2-((4-methyl-3,4,5,6-tetrahydro-2H-benzo[b][1,4,7]dioxazolin-9-yl)amino)-7H-pyrrolo[2,3-d]pyrimidin-4-yl)-1H-pyrazol-1-yl)propanenitrile], the inhibition at 0.1 µM at LRRK2, at JAK2 and on JAK1 [3] (read-out: inhibition rate JAK1) was greater than 80% each time. Further, the IC50 against LRRK2, on JAK2 and on JAK1 [3] was less than 50 nM each time. For the same compound, the EC50 on JAK3 [1] and on JAK1 [2] was less than 50 nM each time. In addition, the inhibition at 0.01 µM at JAK2 was greater than 80%; at JAK1 [3] (at 10 nM, read-out: inhibition rate JAK1), 40 to 79%.

`C=CC(=O)Nc1cccc(Nc2nc(Nc3ccc4c(c3)OCCN(C)CCO4)ncc2Cl)c1` [Example 55, N-(3-((5-chloro-2-((4-methyl-3,4,5,6-tetrahydro-2H-benzo[b][1,4,7]dioxazolin-9-yl)amino)pyrimidin-4-yl)amino)phenyl)acrylamide]: the inhibition at 0.01 µM at JAK3 [4] was greater than 80%; at JAK2 it was 25 to 39%. Moreover, the EC50 at JAK3 [1] was in the range of 50 to 500 nM.

Turning to `CC(C)S(=O)(=O)c1ccccc1Nc1nc(Nc2ccc3c(c2)OCCN(C)CCO3)ncc1C(F)(F)F` [Example 82, N^4-(2-(isopropylsulfonyl)phenyl)-N^2-(4-methyl-3,4,5,6-tetrahydro-2H-benzo[b][1,4, 7]dioxazolin-9-yl)-5-(trifluoromethyl)pyrimidin-2,4-diamine], the figures for the inhibition at 0.01 µM on TYK2, on LRRK2 and at JAK2 were 40 to 79%, greater than 80% and 40 to 79%, respectively. Besides, the IC50 on LRRK2 was less than 50 nM. Also, the EC50 on wild-type LRRK2 and at LRRK2 (G2019S) was less than 500 nM each time.

For `CN1CCOc2ccc(Nc3nc(-c4ccc(C(=O)NCC#N)cc4)c4cc[nH]c4n3)cc2OCC1` [Example 2, N-(cyanomethyl)-4-(2-((4-methyl-3,4,5,6-tetrahydro-2H-benzo[b][1,4,7]dioxazolin-9-yl)amino)-7H-pyrrolo[2,3-d]pyrimidin-4-yl)benzamide], the inhibition at 0.1 µM at LRRK2, on JAK2 and at JAK1 [3] (read-out: inhibition rate JAK1) was greater than 80% throughout. Also, the IC50 against LRRK2, on JAK2 and at JAK1 [3] was less than 50 nM each time. For the same compound, the EC50 on wild-type LRRK2 is less than 500 nM; on JAK1 [2] it was less than 50 nM. Further, at JAK2, the inhibition at 0.01 µM lay within 40 to 79%.

For `CN1CCOc2ccc(Nc3nc(NCCS(C)(=O)=O)c4cc[nH]c4n3)cc2OCC1` [Example 84, N^2-(4-methyl-3,4,5,6-tetrahydro-2H-benzo[b][1,4,7]dioxazolin-9-yl)-N^4-(2-(methylsulfonyl)ethyl)-7H-pyrrolo[2,3-d]pyrimidin-2,4-diamine], on LRRK2, the inhibition at 0.01 µM was 40 to 79% and the IC50 was less than 50 nM. This compound also had an EC50 at wild-type LRRK2 of 1000 to 5000 nM.

Source of the values: patent EP4592286A1, “MACROCYCLIC NITROGEN-CONTAINING CROWN ETHER COMPOUND AND USE THEREOF AS PROTEIN KINASE INHIBITOR” (Artivila Biopharma, priority 2022, dated 2024).
